These results are taken from PubChem BioAssay AID588780 (Sanford-Burnham Center for Chemical Genomics, 2011).

One may read the pIC50 as −log10 of the IC50, conventionally taken in molar units. The term IC50 denotes the midpoint of a concentration-inhibition curve.

pIC50: −log10 of the molar value. The source made the active and inactive calls.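 How the source made its calls: active means compounds whose fitted half-maximal concentration in the cell-protection dose series is at or below a set limit; inactive means the rest.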

The subject of this test is H9c2 cardiomyocytes, 2-deoxyglucose stress, ATP luminescence, 2 h. The experiment in a line: H9c2 cell survival under 2-deoxyglucose stress – uHTS hits, dose response (AID 588780).
For the compound `Cc1nn(-c2ccccc2)c(C)c1/C=N/NC(=O)c1cc(C2CC2)[nH]n1`, the pIC50 is 4.90.

Take `O=C(CN1C(=O)C2C3C=CC(C3)C2C1=O)Nc1nc(-c2ccccn2)cs1` (centres undefined): the pIC50 is 4.54. With `COc1ccc(Cl)cc1-c1nc(-c2ccc(NC(=O)c3cccs3)cc2)no1`, the IC50 was > 79 µM (inactive). Still for that read-out and setting: to `CCOC(=O)c1c(NC(=O)COC(=O)Cc2n[nH]c(=O)c3ccccc23)sc(C(=O)NC)c1C` belongs > 79 µM (inactive); to `CCN(C[C@H]1N[C@@](CC)(C(=O)OC)[C@H]2C(=O)N(Cc3ccccc3)C(=O)[C@@H]12)C(=O)c1ccc(C(C)(C)C)cc1`, > 79 µM (inactive). With `O=c1[nH]c2ccccc2c2ccccc12`, the IC50 was > 79 µM (inactive). Take `Nc1cc2[nH]c(=O)c3ccccc3c2cc1[N+](=O)[O-]`: the pIC50 was 4.82. Consider `COc1cccc(C(=O)CSc2nnc(-c3cc(OC)c(OC)c(OC)c3)o2)c1`, for which the IC50 was > 79 µM (inactive). In the case of `Fc1ccc(CSc2ccc3nnc(-c4cccnc4)n3n2)cc1`, the pIC50 is 4.59.

As for `C[C@H](NC(=O)c1nc[nH]c1C(=O)NCC(=O)OCc1ccccc1)c1ccccc1`, the pIC50 was 4.87. As to `CC(OC(=O)Cn1[nH]c(=O)c2ccccc2c1=O)C(=O)Nc1ccc(F)cc1` (centres undefined), the IC50 is > 79 µM (inactive).

On to `Cc1nc2ccccc2c2c(N)c3ccccc3n12`, for which the pIC50 is 4.58. On to `Cc1cc(C)c(C)c(S(=O)(=O)N2CCN(C(=O)CCc3nc4ccccc4c(=O)[nH]3)CC2)c1C`, for which the IC50 was > 79 µM (inactive).

For `COc1cccc(-c2cnc3c(NC=O)cc(-c4cc(C)c(O)c(C)c4)cn23)c1`, the pIC50 is 4.99. Regarding `COc1cc(/C=C/c2nc3ccccc3c(=O)n2-c2ccccc2O)ccc1O`, the pIC50 was 4.69. On to `CC(OC(=O)Cn1[nH]c(=O)c2ccccc2c1=O)C(=O)NC1(C#N)CCCCC1` (centres undefined), for which the IC50 was > 79 µM (inactive). On the same count and under the same terms, for `CCC(=O)OCCNc1cc(SCCC(=O)OC)c2nonc2c1[N+](=O)[O-]` the value was > 79 µM (inactive). Turning to `CCCN1C(=O)c2cc(C(=O)Nc3cccc(C(C)=O)c3)ccc2C1Nc1cccc(C(C)=O)c1` (centres undefined), the pIC50 was 4.94.

Take `CC(C)COc1nc2ccccc2c(=O)n1OCC(=O)O`: the IC50 was > 79 µM (inactive). On to `NC(=O)c1ccc(Nc2nnc(-c3ccc(O)cc3)c3ccccc23)cc1`, for which the pIC50 is 4.53. Same read-out and setting: to `COc1ccccc1-c1cc(NC(C)=O)c2ncc(-c3cccc(C(C)=O)c3)n2c1` belongs 4.87. Consider `COc1cccc(-c2ccc(SCC(=O)N3CCN(c4ccccc4)CC3)nn2)c1`, for which the IC50 was > 79 µM (inactive). For the compound `CCc1c(C)nc(Nc2nc(C)c3ccc(OC)cc3n2)[nH]c1=O`, the IC50 was > 79 µM (inactive). For `O=CNc1cc(-c2ccc(C(=O)NC3CC3)cc2)cn2c(-c3ccccc3)cnc12`, the negative-log IC50 (pIC50) is 4.92. As to `Cc1cc(C)c(C)c(S(=O)(=O)N2CCC(C(=O)NNC(=O)c3ccccc3O)CC2)c1C`, the IC50 was > 79 µM (inactive). The same measure, in the same setting: to `CCC(CC)C(=O)Nc1cc(C)c2c(=O)oc3ccccc3c2n1` belongs > 79 µM (inactive).

As to `CC(=O)c1ccc(-c2ccc(C(=O)Nc3nc(-c4ccccn4)cs3)o2)cc1`, the IC50 is 44.7 µM (inactive).

With `Cc1ccc(N=Cc2cc(Cl)cc(Cl)c2O)nc1`, the IC50 is > 79 µM (inactive). On the same count and under the same terms, to `CCOC(=O)N1CCN(C(=O)CSc2nc3ccccc3c(=O)n2-c2ccccc2)CC1` belongs 33.6 µM (inactive). Regarding `COc1ccc(N(CC(=O)Nc2cccc(C(C)=O)c2)S(=O)(=O)c2ccc(NC(C)=O)cc2)cc1`, the pIC50 is 4.97. On to `Cc1cc(C)n(-c2ccc3cccc(NS(C)(=O)=O)c3n2)n1`, for which the IC50 was > 79 µM (inactive). Take `CC(C)(C)OC(=O)NCc1ccc(NC(=O)c2nc[nH]c2C(=O)NCCCCCCNC(=O)c2[nH]cnc2C(=O)Nc2ccc(CNC(=O)OC(C)(C)C)cc2)cc1`: the IC50 is > 79 µM (inactive). The same measure, in the same setting: for `COc1cc(C(=O)NCCCNc2nc3cc(C)cc(C)c3cc2C#N)cc(OC)c1OC` the value was 45.6 µM (inactive); for `CS(=O)(=O)Nc1ccc(-c2ccc3nccn3c2)cc1`, > 79 µM (inactive). Still for that read-out and setting: to `O=C(OCc1cc(=O)n2ccsc2n1)c1ccc(O)cc1O` belongs > 79 µM (inactive).

As to `Cc1noc(C)c1COC(=O)COc1ccc2c(C)cc(=O)oc2c1`, the IC50 was > 79 µM (inactive). Consider `O=C(/C=C\c1cn(-c2ccccc2)nc1-c1ccc2c(c1)OCCO2)N1CCOCC1`, for which the IC50 is > 79 µM (inactive). Turning to `COc1cc(/C=C(\C#N)c2nc3ccc(C)cc3[nH]2)c([N+](=O)[O-])cc1OC`, the pIC50 is 4.74.

As to `CC(Oc1ccccc1)C(=O)Nc1nc(-c2ccccn2)cs1` (centres undefined), the IC50 is > 79 µM (inactive). The same measure, in the same setting: to `CCOc1ccc2[nH]c(=O)c(CN(Cc3nnnn3Cc3ccco3)C3CCCCC3)cc2c1` belongs > 79 µM (inactive); to `O=C(CNC(=O)c1ccccc1F)N/N=C/c1cc(Br)ccc1OC(=O)/C=C/c1ccco1`, > 79 µM (inactive).

Turning to `Brc1ccc(-c2nn3c(-c4ccco4)nnc3s2)o1`, the pIC50 was 4.70. In the case of `COc1ccccc1OCCSc1nc2ccccc2c(=O)[nH]1`, the IC50 was > 79 µM (inactive). The same measure, in the same setting: for `Cc1ccc(C)c(C(=O)Nc2cc(C)nn2-c2nc(C)cc(C)n2)c1` the value was > 79 µM (inactive); for `COc1ccc(-c2cc(NC(C)=O)c3ncc(-c4ccc(OC)c(OC)c4)n3c2)cc1OC`, > 79 µM (inactive); for `COc1cccc(-c2nnc(NC(=O)c3ccc(S(=O)(=O)N(CC(C)C)CC(C)C)cc3)o2)c1`, > 79 µM (inactive). Consider `O=C(N/N=C/c1ccccn1)c1ccc(NC(=O)c2cccc([N+](=O)[O-])c2)cc1`, for which the pIC50 is 4.94. Still for that read-out and setting: to `O=C(Cn1[nH]c(=O)c2ccccc2c1=O)N1CC=C(c2ccccc2)CC1` belongs 4.68. As to `Cc1cccc(N2CCN(C(=O)CCc3nc4ccccc4c(=O)[nH]3)CC2)c1C`, the IC50 was > 79 µM (inactive).

With `CC(Oc1cccc(Cl)c1)C(=O)Nc1nc(-c2ccccn2)cs1` (centres undefined), the IC50 was 44.4 µM (inactive). Turning to `CC(C)c1ccc(S(=O)(=O)N2CCN(CC(=O)c3ccc(O)c(O)c3)CC2)cc1`, the pIC50 is 4.67. Consider `Cc1nn(Cc2ccc(C(=O)N3CCN(C(=O)c4ccco4)CC3)o2)c(C)c1[N+](=O)[O-]`, for which the IC50 is > 79 µM (inactive).

In the case of `O=C(CCc1nc2ccccc2c(=O)[nH]1)N1CCN(S(=O)(=O)c2cc(Cl)ccc2Cl)CC1`, the IC50 was > 79 µM (inactive). Still for that read-out and setting: for `CC12CCC3C(CCC4CC(O)CCC43C)C1CC(O)C2` (centres undefined) the value was > 79 µM (inactive); for `COc1ccc(N(C(=O)c2cccnc2)S(=O)(=O)c2cccs2)cc1`, > 79 µM (inactive); for `CCN(CC)C(=O)c1ccc(-c2nnc(Nc3ccc(O)cc3)c3ccccc23)cc1`, 71.4 µM (inactive). As for `COc1ccc(C(C(=O)NC2CCCCC2)N(Cc2cccs2)C(=O)Cc2c[nH]c3ccccc23)cc1OC` (centres undefined), the pIC50 is 4.90. For the compound `CC(OC(=O)Cc1n[nH]c(=O)c2ccccc12)C(=O)Nc1ccc(F)cc1Cl` (centres undefined), the IC50 was > 79 µM (inactive). On to `Cc1c(C#N)c(N)nc2c3c(sc12)NC(=O)CC3c1ccc(Cl)cc1` (centres undefined), for which the pIC50 is 4.71. Still for that read-out and setting: for `CNC(=O)/C(C#N)=C/c1c(N(Cc2ccccc2)Cc2ccccc2)nc2ccccn2c1=O` the value was 4.80. In the case of `CCCN(CC(=O)Nc1ccc(F)c(F)c1F)C(=O)CCc1nc2ccccc2c(=O)[nH]1`, the IC50 is > 79 µM (inactive). For `CCOC(=O)c1cnc2ccc(C(=O)OC)cc2c1NCCc1ccc(OC)c(OC)c1`, the IC50 was > 79 µM (inactive). Still for that read-out and setting: to `O=C(N/N=C/c1ccc(-c2cccc([N+](=O)[O-])c2)o1)c1ccc([N+](=O)[O-])cc1` belongs > 79 µM (inactive). `C[C@@H]1CN([C@@H](C)CO)C(=O)c2cc(NC(=O)Nc3ccccc3)ccc2O[C@H]1CN(C)C(=O)Nc1cccc2ccccc12`: the pIC50 is 4.80.

For the compound `COc1ccc(NC(=O)CN(C)C(=O)Cc2n[nH]c(=O)c3ccccc23)cc1`, the IC50 was > 79 µM (inactive).

`Oc1ccc(Cl)cc1C=Nc1ccc(Br)cc1`: the IC50 was > 79 µM (inactive). As to `O=C(N/N=C/c1ccc2c(c1)OCO2)c1ccc(NC(=O)c2ccccc2Cl)cc1`, the pIC50 is 4.79.

Consider `CCC1(C)Cc2c(sc3nc(NN)n(C)c(=O)c23)CO1` (centres undefined), for which the IC50 is > 79 µM (inactive). Same read-out and setting: for `CCC(c1nnnn1Cc1ccco1)N(Cc1cc2cc(C)cc(C)c2[nH]c1=O)CC1CCCO1` (centres undefined) the value was > 79 µM (inactive).

As for `Cc1cccc(C(C)C)c1NC(=O)C(C)OC(=O)Cc1n[nH]c(=O)c2ccccc12` (centres undefined), the IC50 is > 79 µM (inactive). As to `CC(C)(C)OC(=O)N1CCC[C@H]1c1nnc(SCC(=O)Nc2ccc(Br)cc2)o1`, the pIC50 was 4.75. Consider `Cc1cc(C)c2ccc(NN)nc2c1O`, for which the IC50 is > 79 µM (inactive).

Consider `COc1cc(/C=C/c2nc3ccccc3c(=O)n2-c2ccc(O)cc2)ccc1O`, for which the pIC50 was 5.04.

Consider `CC(C)(C)OC(=O)N1CCC(NC(=O)c2nc[nH]c2C(=O)NCC(=O)OCc2ccccc2)CC1`, for which the IC50 was > 79 µM (inactive).

`COc1cccc(/C=N/NC(=O)c2ccncc2)c1OC(=O)c1ccc(Br)cc1`: the pIC50 was 4.61. Take `CC(C)(C)N=Cc1c(O)ccc2oc3c(c12)CCCC3`: the IC50 was > 79 µM (inactive). On to `C[C@@H](NC(=O)c1nc[nH]c1C(=O)NCC(=O)OCc1ccccc1)c1ccccc1`, for which the IC50 was > 79 µM (inactive).

Turning to `COc1ccc2[nH]c(=O)c(CN(CCc3ccccc3)Cc3nnnn3CC3CCCO3)cc2c1` (centres undefined), the IC50 was > 79 µM (inactive). On the same count and under the same terms, to `O=C1NC(c2cccs2)Nc2ccccc21` (centres undefined) belongs > 79 µM (inactive); to `O=C(CCc1nc2ccccc2c(=O)[nH]1)NNC(=O)c1ccc(Cl)cc1`, > 79 µM (inactive).

On to `Oc1c(Br)cc(Br)cc1C=Nc1ccc2c(c1)OCCO2`, for which the pIC50 is 4.61. As for `CC(=O)NC(CCc1ccc(Cl)c(Cl)c1)c1cccc(O)c(=O)c1` (centres undefined), the IC50 was > 79 µM (inactive). `O=c1c2ccccc2nc(-c2ccc(Cl)c(Cl)c2)n1O`: the negative logarithm of the IC50 (pIC50) was 5.09. Consider `N#CCCn1c(SCC(=O)c2c[nH]c3ccccc23)nc2ccccc21`, for which the IC50 is 49.4 µM (inactive).
